The numbers were not newly measured in patent US20160378910A1, “MOLECULAR ACTIVE CENTER IDENTIFICATION USING TUNNELING BARRIERS AND/OR ASSOCIATED MEASUREMENTS FOR SUB-MOLECULAR QSAR” (Florida Institute of Technology, Inc., priority 2015, published 2016), which cites them from elsewhere.

This series relates to W-2 strain of P. falciparum. Conditions: W-2 strain of malaria (P. falciparum); rank among the twelve tryptanthrin analogs in the α3* lobe QSAR plot (FIG. 13).

As to `O=C1c2cc(I)ccc2-n2c1nc1c(O)nc(O)nc1c2=O` [1,3-diaza-2,4-hydroxy-8-iodotryptanthrin], the IC50 entry is listed as “highest”.
